The record followed here is publication PMC3321104 (Bioorganic & medicinal chemistry letters, 2012).

SMILES strings stand for the structures. Like-named read-outs stand apart in the source and are kept apart here.

Data set [1] deals with chloroquine-resistant P. falciparum strain W2.
The subject of data set [2] is Vero cell. Kind of data set: Vero cell toxicity. It is filed as cell-based. The note with it: concentrations up to 25 μM.
The subject of data set [3] is chloroquine-resistant P. falciparum strain W2. Kind of data set: microbe, parasite or virus in culture. The note with it: Plasmodium falciparum.

On to `CC1=C(CCCCC[P+](c2ccccc2)(c2ccccc2)c2ccccc2)C(=O)c2ccccc2C1=O` [9n], for which the “fold greater activity than control 4a” value in data set [1] is given as 3–7 fold.
For the molecule `CC1=C(CCCC[P+](c2ccccc2)(c2ccccc2)c2ccccc2)C(=O)c2ccccc2C1=O` [9o, (4-(3-methyl-1,4-dioxo-1,4-dihydronaphthalen-2-yl)butyl)triphenyl-phosphonium methanesulfonate], the “Vero cell toxicity (in words)” value in data set [2] was “not displaying toxicity at 25 μM”.
On the same count and under the same terms, in the case of `O=C(Cn1ccnc1[N+](=O)[O-])NCc1ccccc1` [BNZ, benznidazole] it was “non-toxic”.
With `CCN(CC)CCCC(C)Nc1ccnc2cc(Cl)ccc12` (centres unmarked) [CQ, chloroquine], the IC50 in data set [3] (W2, read-out: IC50 (nM), P. falciparum growth) stood at 66.9 ± 2.3 nM; in data set [3] (W2, read-out: IC50, P. falciparum W2) it was 66.9 nM.

One may read the IC50 as the concentration that gives 50% inhibition.
